Reference: PMC3158675, “Effective inhibitors of the essential kinase PknB and their potential as anti-mycobacterial agents” (Tuberculosis (Edinburgh, Scotland), 2011)

Legend:
Type in all cases: cell-based
M. smegmatis fbpA mutant = details: mutant compared with wild type
M. tuberculosis [1] = assay: Alamar blue MIC with efflux pump inhibitors reserpine and verapamil; details: reserpine or verapamil at 20 or 40 μg/ml
M. tuberculosis [2] = assay: Alamar blue MIC with cell wall weakening agent ethambutol at 0.5 MIC

Row | SMILES | Improvement of MIC in M. smegmatis fbpA mutant (M. smegmatis fbpA mutant) | further results
1 | CC[C@H]1OC(=O)[C@H](C)[C@@H](O[C@H]2C[C@@](C)(OC)[C@@H](O)[C@H](C)O2)[C@H](C)[C@@H](O[C@@H]2O[C@H](C)C[C@H](N(C)C)[C@H]2O)[C@](C)(O)C[C@@H](C)C(=O)[C@H](C)[C@@H](O)[C@]1(C)O [erythromycin] | 8 fold | 
2 | CC[C@@H](CO)NCCN[C@@H](CC)CO [ethambutol] | not improved | 
3 | CC[n+]1c(-c2ccccc2)c2cc(N)ccc2c2ccc(N)cc21 [ethidium bromide] |  | Decrease of MIC with efflux pump inhibitor (M. tuberculosis [1]): 4 fold
4 | CO[C@H]1/C=C/O[C@@]2(C)Oc3c(C)c(O)c4c(O)c(c(/C=N/N5CCN(C)CC5)c(O)c4c3C2=O)NC(=O)/C(C)=C\C=C\[C@H](C)[C@H](O)[C@@H](C)[C@@H](O)[C@@H](C)[C@H](OC(C)=O)[C@@H]1C [rifampicin] |  | Reduction of MIC in the presence of sub-inhibitory ethambutol (M. tuberculosis [2]): 4 fold
5 | [H]/N=C(/N)N[C@H]1[C@H](O)[C@@H](O)[C@H](O[C@@H]2O[C@@H](C)[C@](O)(C=O)[C@H]2O[C@@H]2O[C@@H](CO)[C@H](O)[C@@H](O)[C@@H]2NC)[C@@H](N/C(N)=N\[H])[C@@H]1O [streptomycin] | not improved | 
6 | CN[C@H](CC(C)C)C(=O)N[C@H]1C(=O)N[C@@H](CC(N)=O)C(=O)N[C@H]2C(=O)N[C@H]3C(=O)N[C@H](C(=O)N[C@H](C(=O)O)c4cc(O)cc(O)c4-c4cc3ccc4O)[C@H](O)c3ccc(c(Cl)c3)Oc3cc2cc(c3O[C@@H]2O[C@H](CO)[C@@H](O)[C@H](O)[C@H]2O[C@H]2C[C@](C)(N)[C@H](O)[C@H](C)O2)Oc2ccc(cc2Cl)[C@H]1O [vancomycin] | 16 fold | 
